These results are taken from US11529367B2, “Radiation damage protective agent” (MiZ Company Limited, priority 2016, dated 2022).

This assay deals with cancer patients subjected to IMRT irradiation (bone marrow damage by radiation). Particulars: mean±SE, n=16, before treatment taken as 1. On the procedure: These patients were subjected to IMRT irradiation integrated with a computed tomograph (CT). Irradiation was in principle performed on a schedule of once a day, five times per week, and this schedule was repeated. Radiation was applied at 1 to 5 locations for 5 to 20 minutes once, and the number of times irradiation was performed was 5 to 20.
These patients were housed in a hyperbaric capsule (APF 2, 700×1900 mm; oxygen concentration: 28% by volume; Air Press Co., Ltd.) at 1.35 atm for 30 minutes after each irradiation with radiation to alleviate the adverse effects.
In addition, 16 patients (8 males and 8 females) who had visited from April 2016 until November 2016 were included in the hydrogen group. These patients were housed in the capsule similar to the above-mentioned capsule except that a hydrogen gas inhaler (MHG-44280, MiZ Company Limited), which generates approximately 6.5% by volume of hydrogen gas (4 L/min) by electrolysis of water, was connected in series with and upstream the air intake of the pressurizing device for the hyperbaric capsule provided outside the capsule, so as to feed high-pressure air containing hydrogen gas into the capsule, while the patients were allowed to inhale, via the nasal cannula, for 30 minutes, 4% by volume to 6% by volume of hydrogen gas (4 L/min) carried through a Y-shaped tube by which the air outlets of two hydrogen gas inhalers (MHG-2070 and MHG-2140, MiZ Company Limited) provided in the capsule were connected in parallel. The hydrogen gas concentration in the ceiling portion of the capsule was approximately 0.2% by volume.
Blood samples were taken periodically from both groups of patients before, during and after radiation treatment. The analysis items of blood were the white blood cell count (WBC), red blood cell count (RBC), hemoglobin level (Hb), hematocrit level (Ht) and platelet count (PLT), and these were used as indicators for hematopoietic function.

Setting [1] is: 4-6% by volume hydrogen gas inhaled 30 min in hyperbaric capsule at 1.35 atm, no significant difference vs control.

Regarding `[HH]` [H2, hydrogen gas], under “4-6% by volume hydrogen gas inhaled 30 min in hyperbaric capsule at 1.35 atm after each irradiation, p<0.01 vs control”, the “WBC ratio: relative value of the white blood cell count (WBC) immediately after radiation treatment to the WBC before radiation treatment” value stood at 0.612±0.088. Moreover, under setting [1], the “Hb ratio: relative value of the hemoglobin level (Hb) immediately after radiation treatment to the Hb before radiation treatment” value amounted to 0.966±0.029, the “Ht ratio: relative value of the hematocrit level (Ht) immediately after radiation treatment to the Ht before radiation treatment” value was found to be 0.953±0.027 and the “RBC ratio: relative value of the red blood cell count (RBC) immediately after radiation treatment to the RBC before radiation treatment” value is recorded as 0.985±0.027. The “PLT ratio: relative value of the platelet count (PLT) immediately after radiation treatment to the PLT before radiation treatment” value (4-6% by volume hydrogen gas inhaled 30 min in hyperbaric capsule at 1.35 atm, p<0.05 vs control) came out at 0.752±0.130.
